Reference: patent publication US6090958A, “Compounds and compositions for delivering active agents” (Emisphere Technologies, Inc., priority 1997, dated 2000)

Details: rat, in vivo, 50 mg/kg
Protocol: An intracolonic dosing composition containing 50 mg/kg of carrier 9 and 250 μg/kg of interferon in 50% propylene glycol was prepared. Rats were administered the dosing composition by intracolonic instillation.
Rats were administered, orally and by intracolonic instillation, dosing solutions of 1 mg/kg of interferon and no carrier.

O=C(O)CCCc1ccc(NC(=O)COc2ccccc2)cc1 [Compound 9]
Mean peak serum interferon concentration: 2611±695
